“Also recorded” adds a separate entry of the source. Where two headings read alike, the source gives them in different places.
Tests used:
[1] = Chemical and physical stability of the salts at the end of the preparation; type: physicochemical
Text: It is crucial for drug development whether the salts obtained as above have chemical and physical stability at the end of the preparation.

[2] = Solid storage stability test; type: physicochemical; conditions: for chemical and physical stability after storage: solid/25° C./60% RH/open/1 week and/or solid/60° C./closed container/1 week
Method: Each amorphous salt solid was weighed (two 2 mg samples were weighed for purity testing after solid storage stability study, and one 10 mg sample was weighed for XRPD testing after solid storage stability study) and placed in a glass vial. In a 25° C./60% RH solid storage stability test, the amorphous salt solid was placed in a 25° C./60% RH constant temperature and humidity chamber, and placed in the dark for 1 week (i.e. “solid/25° C./60% RH/open/1 week”), and in a 60° C. solid storage stability test, the amorphous salt solid was sealed in an oven at 60° C. and heated for 1 week in the dark (i.e. “solid/60° C./closed container/1 week”). Then the sample was taken out for purity testing, crystal form detection and appearance observation, respectively.

[3] = Solid solubility test (2 h and 24 h); type: physicochemical; conditions: Test ES4: FaSSIF-V1 (pH 6.5); for Solubility measured at 2 h: 37° C., based on free base
Method: 5 samples were weighed for each amorphous salt solid (equivalent to 20 mg of free base), and 10 mL of the following solvents were respectively added: 0.1N HCl solution (pH 1.0), 50 mM phosphate buffer (pH 4.5), FeSSIF-V1 (pH 5.0), FaSSIF-V1 (pH 6.5) and SGF (pH 2.0), and stirred at 37° C. for 2 h. The suspension was then centrifuged at 37° C., the supernatant was measured for solubility by HPLC, and the solid fraction was measured for XRPD. The target solubility was at least 2 mg (based on free base)/mL.

[4] = Drug absorption test in male Han-Wister rats; type: in vivo; conditions: for F: intragastric versus intravenous administration, doses 80, 100, 93.2, 81.1 mg/kg for Example 1, 2, 3, 4
Method: Intravenous administration: Three healthy male Han-Wister rats having a body weight of 250-350 g were provided by Beijing Vital River Laboratory Animal Technology Co., Ltd. The above compound of Example 1 was administered intravenously at the doses (calculated based on free base) listed in Table 1 below, respectively. Before administration and 15 min, 0.5 h, 1.0 h, 2.0 h, 4.0 h, 8.0 h, 12 h, and 24 h after administration, jugular vein puncture was performed to take 0.05 mL of blood, plasma was separated and prepared, and the drug concentration in the plasma was measured by liquid chromatography-tandem mass spectrometry (LC-MS) to obtain a drug concentration-time curve.
Intragastric administration: Twelve healthy male Han-Wister rats having a body weight of 250-350 g were provided by Beijing Vital River Laboratory Animal Technology Co., Ltd. and randomly divided into 4 groups. The above compounds of Example 1, Example 2, Example 3 and Example 4 were administered intragastrically at the doses (calculated based on free base) listed in Table 2 below, respectively. Before administration and 15 min, 0.5 h, 1.0 h, 2.0 h, 4.0 h, 8.0 h, 12 h, and 24 h after administration, jugular vein puncture was performed to take 0.05 mL of blood, plasma was separated and prepared, and the drug concentration in the plasma was measured by liquid chromatography-tandem mass spectrometry (LC-MS) to obtain a drug concentration-time curve.

[5] = Solid solubility test (2 h and 24 h); type: physicochemical; conditions: for Solubility measured at 24 h: 37° C., based on free base
[6] = Test BS1: solid/25° C./60% RH/open/1 week
[7] = Test BS2: solid/60° C./closed container/1 week
[8] = intragastric administration, doses 80, 100, 93.2, 81.1 mg/kg for Example 1, 2, 3, 4 (calculated based on free base)

| Compound | Color [2, 6] | Morphology (XRPD crystallinity) [2, 6] | Morphology (agglomeration, appearance) [2, 6] | Color [2, 7] | Morphology (XRPD crystallinity) [2, 7] | Morphology (agglomeration, appearance) [2, 7] | pH measured at 2 h [3] | Solubility measured at 2 h [3] [µg/mL] | AUC0-t [4, 8] [ng·h/mL] | Cmax [4, 8] [ng/mL] | T1/2 [4, 8] [h] | F [4] [%] | also measured |
| --- | --- | --- | --- | --- | --- | --- | --- | --- | --- | --- | --- | --- | --- |
| C=CC(=O)Nc1cc(Nc2ncnc(-c3cn(C)c4ccccc34)n2)c(OC)cc1N(C)CCN(C)C [Example 12] |  |  |  |  |  |  |  |  |  |  |  |  | chemical and physical stability at the end of the preparation ([1]; listed as amorphous sulfate salt): chemically stable; also recorded: physically unstable due to a certain hygroscopicity |
| C=CC(=O)Nc1cc(Nc2ncnc(-c3cn(C)c4ccccc34)n2)c(OC)cc1N(C)CCN(C)C [Example 2] | no color change | amorphous (FIG. 90), | no agglomeration | no color change | amorphous (FIG. 90), | no agglomeration | (6.5) | >2000 | 13060 | 1024 | 6.65 | 29.3 | chemical and physical stability after storage ([2]; listed as 1 eq. hydrochloride salt): chemically unstable; chemical and physical stability after storage ([2]; listed as amorphous 1 eq. hydrochloride salt): chemically unstable; physical and chemical stability (in words) ([2]; solid/25° C./60% RH/open/1 week, listed as amorphous 1 eq. hydrochloride salt): good physical and chemical stability |
| C=CC(=O)Nc1cc(Nc2ncnc(-c3cn(C)c4ccccc34)n2)c(OC)cc1N(C)CCN(C)C [Example 14] |  |  |  |  |  |  |  |  |  |  |  |  | chemical and physical stability at the end of the preparation ([1]; listed as amorphous sulfosalicylate salt (Sample No. Y11526-25-FD13-1,4-dioxane)): chemically and physically stable |
| C=CC(=O)Nc1cc(Nc2ncnc(-c3cn(C)c4ccccc34)n2)c(OC)cc1N(C)CCN(C)C [Example 15] |  |  |  |  |  |  |  |  |  |  |  |  | chemical and physical stability at the end of the preparation ([1]; listed as amorphous sulfosalicylate salt (Sample No. Y11526-25-FD12-1,4-dioxane)): chemically and physically stable |
| C=CC(=O)Nc1cc(Nc2ncnc(-c3cn(C)c4ccccc34)n2)c(OC)cc1N(C)CCN(C)C [Example 13] |  |  |  |  |  |  |  |  |  |  |  |  | chemical and physical stability at the end of the preparation ([1]; listed as amorphous 2 eq. p-tosylate salt): chemically stable; also recorded: physically unstable due to caking and fusion to a glassy state upon short exposure to environmental conditions |
| C=CC(=O)Nc1cc(Nc2ncnc(-c3cn(C)c4ccccc34)n2)c(OC)cc1N(C)CCN(C)C [Example 1] | no color change | amorphous (FIG. 89), | no agglomeration | no color change | medium crystallinity |  | (6.8) | >2000 | 3968 | 583 |  | 11.1 | physical and chemical stability (in words) ([2]; solid/25° C./60% RH/open/1 week, listed as amorphous free base): good physical and chemical stability; physical and chemical stability (in words) ([2]; solid/60° C./closed container/1 week, listed as amorphous free base): transformed from amorphous to a moderate crystallinity; half-life ([4]; male, Han-Wister, rat, plasma, iv, 1 mg/kg, intravenous administration, 1.0 mg/kg (calculated based on free base), rat plasma): 2.99 h; AUC0-t ([4]; male, Han-Wister, rat, plasma, iv, 1 mg/kg, intravenous administration, 1.0 mg/kg (calculated based on free base), rat plasma, read-out: AUC0-t): 446 ng·h/mL; Cmax ([4]; male, Han-Wister, rat, plasma, iv, 1 mg/kg, intravenous administration, 1.0 mg/kg (calculated based on free base), rat plasma, read-out: Cmax): 364 ng/mL; half-life ([4]; male, Han-Wister, rat, plasma, po, 81.1 mg/kg, intragastric administration, doses 80, 100, 93.2, 81.1 mg/kg for Example 1, 2, 3, 4 (calculated based on free base)): 3.36 h; pH measured at 24 h ([5]; Test ES3: FeSSIF-VI (pH 5.0)): (5.0); Solubility measured at 24 h ([5]; Test ES3: FeSSIF-VI (pH 5.0)): >2000 µg/mL; pH measured at 24 h ([5]; Test ES4: FaSSIF-VI (pH 6.5)): (6.8); Solubility measured at 24 h ([5]; Test ES4: FaSSIF-VI (pH 6.5)): >2000 µg/mL |
| C=CC(=O)Nc1cc(Nc2ncnc(-c3cn(C)c4ccccc34)n2)c(OC)cc1N(C)CCN(C)C [Example 9] | slight color change | amorphous (FIG. 101), | agglomeration (FIG. 102) | no color change | low crystallinity |  | (6.1) | >2000 |  |  |  |  | chemical and physical stability after storage ([2]; listed as 1 eq. maleate salt): chemically unstable; also recorded: physically unstable; chemical and physical stability after storage ([2]; listed as amorphous 1 eq. maleate salt): chemically unstable; also recorded: physically unstable; physical and chemical stability (in words) ([2]; solid/25° C./60% RH/open/1 week, listed as amorphous 1 eq. maleate salt): slight color change and showed a certain hygroscopicity (agglomeration); physical and chemical stability (in words) ([2]; solid/60° C./closed container/1 week, listed as amorphous 1 eq. maleate salt): transformed from amorphous to a low crystallinity |
| C=CC(=O)Nc1cc(Nc2ncnc(-c3cn(C)c4ccccc34)n2)c(OC)cc1N(C)CCN(C)C [Example 3] | slight color change | amorphous (FIG. 91), | partial agglomeration | no color change | amorphous (FIG. 91), | no agglomeration | (6.1) | >2000 | 11213 | 1020 | 6.04 | 27.0 | chemical and physical stability after storage ([2]; listed as 2 eq. hydrochloride salt): physically unstable; chemical and physical stability after storage ([2]; listed as amorphous 2 eq. hydrochloride salt): physically unstable; physical and chemical stability (in words) ([2]; solid/25° C./60% RH/open/1 week, listed as amorphous 2 eq. hydrochloride salt): slight color change and showed a certain hygroscopicity (partial agglomeration); physical and chemical stability (in words) ([2]; solid/60° C./closed container/1 week, listed as amorphous 2 eq. hydrochloride salt): good physical and chemical stability |
| C=CC(=O)Nc1cc(Nc2ncnc(-c3cn(C)c4ccccc34)n2)c(OC)cc1N(C)CCN(C)C [Example 4] | no color change | amorphous (FIG. 93), | no agglomeration | no color change | amorphous (FIG. 93), | no agglomeration | (6.5) | >2000 | 9703 | 1376 | 6.17 | 26.8 | chemical and physical stability after storage ([2]; listed as 1 eq. mesylate salt): chemically and physically stable; chemical and physical stability after storage ([2]; listed as amorphous 1 eq. mesylate salt): chemically and physically stable; physical and chemical stability (in words) ([2]; solid/25° C./60% RH/open/1 week, listed as amorphous 1 eq. mesylate salt): good physical and chemical stability; physical and chemical stability (in words) ([2]; solid/60° C./closed container/1 week, listed as amorphous 1 eq. mesylate salt): good physical and chemical stability; pH measured at 24 h ([5]; Test ES3: FeSSIF-VI (pH 5.0)): (5.0); Solubility measured at 24 h ([5]; Test ES3: FeSSIF-VI (pH 5.0)): >2000 µg/mL; pH measured at 24 h ([5]; Test ES4: FaSSIF-VI (pH 6.5)): (6.6); Solubility measured at 24 h ([5]; Test ES4: FaSSIF-VI (pH 6.5)): >2000 µg/mL |

Source: patent publication US20240391902A1, “Crystalline Form of Compound” (Shenzhen Forward Pharmaceuticals Co., Limited, priority 2020, published 2024)
